Several values for one entry are separate records, joined by “and”; a condition that tells them apart may be missing. Equal values may be shown once. Entries after “also recorded” stand apart in the source; their conditions may differ. Read-outs that look alike come from different tables or passages of the source.
Legend:
Format in all cases: cell-based
EP2 WT = EP2 WT (Homo sapiens, UniProt P43116); assay: GloSensor cAMP assay, antagonism of PGE2-induced cAMP; set-up: The full-length EP2 or EP4 was cloned into the pcDNA3.1 vector; FLAG (N); expressed in transfected cells; host or cells: AD293 cells; details: for remaining activity at 0.1 µM / remaining activity at 0.01 µM / remaining activity at 0.001 µM / remaining activity at 0.0001 µM / remaining activity at 10 pM / remaining activity at 1 pM / remaining activity at 10 µM / remaining activity at 1 µM: 1 h; for remaining activity at 0.1 µM / remaining activity at 0.01 µM / remaining activity at 0.001 µM / remaining activity at 0.0001 µM / remaining activity at 10 pM / remaining activity at 1 pM / remaining activity at 10 µM / remaining activity at 1 µM / cAMP activity (∆pIC50 from EP2 WT): single experiments 1st-3rd
EP2 WT, sequence (P43116 whole entry): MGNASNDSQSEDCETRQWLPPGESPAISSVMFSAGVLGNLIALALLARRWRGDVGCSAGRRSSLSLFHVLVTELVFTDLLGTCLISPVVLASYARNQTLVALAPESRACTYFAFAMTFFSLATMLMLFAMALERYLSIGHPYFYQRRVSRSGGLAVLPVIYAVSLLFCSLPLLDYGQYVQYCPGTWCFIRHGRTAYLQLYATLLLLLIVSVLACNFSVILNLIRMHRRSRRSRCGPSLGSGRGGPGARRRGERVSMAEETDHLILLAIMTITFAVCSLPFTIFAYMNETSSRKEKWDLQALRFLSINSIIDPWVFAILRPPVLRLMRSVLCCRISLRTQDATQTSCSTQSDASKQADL
Protocol: (§1) The full-length EP2 or EP4 was cloned into the pcDNA3.1 vector (Invitrogen), incorporating an N-terminal FLAG tag. AD293 cells were seeded in six-well plates containing DMEM supplemented with 10% dialyzed FBS 1 day prior to transfection. Following overnight growth, cells were transfected with a 1:1 ratio of receptor construct and GloSensor22F cAMP biosensor (Promega) plasmids.
(§2) Twenty-four hours post-transfection, the cells were transferred to CO2-independent media containing 2% GloSensor cAMP Reagent (Promega) and distributed into 384-well assay plates at a density of 4000 cells per well in 10 μL. […] The plates were then incubated at 37 °C for an additional hour before luminescence measurements were taken using an EnVision plate reader.
(§3) Data analysis was performed using GraphPad Prism software v8.0.1. A nonlinear regression analysis, employing a sigmoidal dose–response model, was conducted to determine the Emax values and half-maximum inhibitory concentrations (IC50) for each compound tested.

EP4 WT = biological target: T1, EP4 WT (Homo sapiens, UniProt P35408); assay: as above; details: 1 h, single experiments 1st-3rd, Fig. S1A
T1 construct: The full-length EP2 or EP4 was cloned into the pcDNA3.1 vector; FLAG (N); expressed in transfected cells; host or cells: AD293 cells
T1 sequence (P35408 whole entry): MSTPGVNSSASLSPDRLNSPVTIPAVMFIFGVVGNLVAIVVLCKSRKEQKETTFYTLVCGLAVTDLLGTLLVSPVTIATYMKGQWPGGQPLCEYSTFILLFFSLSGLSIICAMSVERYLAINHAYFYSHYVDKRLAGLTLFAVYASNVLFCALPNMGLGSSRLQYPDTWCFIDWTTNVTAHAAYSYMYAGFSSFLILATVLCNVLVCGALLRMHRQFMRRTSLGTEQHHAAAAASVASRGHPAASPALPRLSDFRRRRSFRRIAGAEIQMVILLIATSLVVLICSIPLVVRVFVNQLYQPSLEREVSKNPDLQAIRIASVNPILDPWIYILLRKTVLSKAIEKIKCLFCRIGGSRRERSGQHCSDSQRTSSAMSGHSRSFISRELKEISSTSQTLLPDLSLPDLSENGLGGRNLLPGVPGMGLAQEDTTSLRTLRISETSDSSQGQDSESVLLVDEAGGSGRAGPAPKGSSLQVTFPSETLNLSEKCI
Protocol: as §1, §2, §3

[1] = biological target: T2, constitutively active EP2 S308A (Homo sapiens, UniProt P43116, S308A); assay: GloSensor cAMP assay, inhibition of constitutive activity
T2 construct: The full-length EP2 or EP4 was cloned into the pcDNA3.1 vector; FLAG (N); expressed in transfected cells; host or cells: AD293 cells
T2 sequence (P43116 whole entry S308A): as the sequence (P43116 whole entry) above, with S308A counted along it
Protocol: as §1, §2, §3

[2] = biological target: T3, constitutively active EP2 S305A (Homo sapiens, UniProt P43116, S305A); assay: as above; details: for cAMP activity (∆pIC50 from EP2 WT): PF-04418948, S305A
T3 construct: The full-length EP2 or EP4 was cloned into the pcDNA3.1 vector; FLAG (N); expressed in transfected cells; host or cells: AD293 cells
T3 sequence (P43116 whole entry S305A): as the sequence (P43116 whole entry) above, with S305A counted along it
Protocol: as §1, §2, §3

[3] = biological target: T4, constitutively active EP2 WT (Homo sapiens, UniProt P43116); assay: as above
T4 construct: The full-length EP2 or EP4 was cloned into the pcDNA3.1 vector; FLAG (N); expressed in transfected cells; host or cells: AD293 cells
T4 sequence (P43116 whole entry): as the sequence (P43116 whole entry) above
Protocol: as §1, §2, §3

[4] = biological target: T5, constitutively active EP2 S86A (Homo sapiens, UniProt P43116, S86A); assay: as above; details: for cAMP activity (∆pIC50 from EP2 WT): PF-04418948, S86A
T5 construct: The full-length EP2 or EP4 was cloned into the pcDNA3.1 vector; FLAG (N); expressed in transfected cells; host or cells: AD293 cells
T5 sequence (P43116 whole entry S86A): as the sequence (P43116 whole entry) above, with S86A counted along it
Protocol: as §1, §2, §3

[5] = biological target: T6, constitutively active EP2 M116A (Homo sapiens, UniProt P43116, M116A); assay: as above
T6 construct: The full-length EP2 or EP4 was cloned into the pcDNA3.1 vector; FLAG (N); expressed in transfected cells; host or cells: AD293 cells
T6 sequence (P43116 whole entry M116A): as the sequence (P43116 whole entry) above, with M116A counted along it
Protocol: as §1, §2, §3

[6] = biological target: T7, constitutively active EP2 W186A (Homo sapiens, UniProt P43116, W186A); assay: as above
T7 construct: The full-length EP2 or EP4 was cloned into the pcDNA3.1 vector; FLAG (N); expressed in transfected cells; host or cells: AD293 cells
T7 sequence (P43116 whole entry W186A): as the sequence (P43116 whole entry) above, with W186A counted along it
Protocol: as §1, §2, §3

[7] = biological target: T8, constitutively active EP2 T82A (Homo sapiens, UniProt P43116, T82A); assay: as above
T8 construct: The full-length EP2 or EP4 was cloned into the pcDNA3.1 vector; FLAG (N); expressed in transfected cells; host or cells: AD293 cells
T8 sequence (P43116 whole entry T82A): as the sequence (P43116 whole entry) above, with T82A counted along it
Protocol: as §1, §2, §3

[8] = 1 h, PF-04418948 log([M]) -8.00, read-out: % cAMP activity (normalized to WT)
[9] = 1 h, PF-04418948 log([M]) -9.00, read-out: % cAMP activity (normalized to WT)
[10] = 1 h, PF-04418948 log([M]) -10.00, read-out: % cAMP activity (normalized to WT)
[11] = 1 h, PF-04418948 log([M]) -11.00, read-out: % cAMP activity (normalized to WT)
[12] = 1 h, PF-04418948 log([M]) -12.00, read-out: % cAMP activity (normalized to WT)
[13] = no PGE2, pIC50 mutant - pIC50 WT, mean
[14] = 1 h, PF-04418948 log([M]) -5.00, read-out: % cAMP activity (normalized to WT)
[15] = 1 h, PF-04418948 log([M]) -6.00, read-out: % cAMP activity (normalized to WT)

- remaining activity at 0.1 µM (EP2 WT; PF-04418948 log([M]) -7, Fig. 3D, read-out: % cAMP activity (normalized to WT)): 5.55%
- remaining activity at 0.01 µM (EP2 WT; PF-04418948 log([M]) -8, Fig. 3D, read-out: % cAMP activity (normalized to WT)): 44.3%
- remaining activity at 0.001 µM (EP2 WT; PF-04418948 log([M]) -9, Fig. 3D, read-out: % cAMP activity (normalized to WT)): 82.7%
- remaining activity at 0.0001 µM (EP2 WT; PF-04418948 log([M]) -10, Fig. 3D, read-out: % cAMP activity (normalized to WT)): 105%
- remaining activity at 10 pM (EP2 WT; PF-04418948 log([M]) -11, Fig. 3D, read-out: % cAMP activity (normalized to WT)): 101%
- remaining activity at 1 pM (EP2 WT; PF-04418948 log([M]) -12, Fig. 3D, read-out: % cAMP activity (normalized to WT)): 104%
- remaining activity at 10 µM (EP2 WT; ligand log([M]) -5, Fig. S7B, read-out: % cAMP activity (normalized to WT)): 2.66%
- remaining activity at 1 µM (EP2 WT; ligand log([M]) -6, Fig. S7B, read-out: % cAMP activity (normalized to WT)): 2.72%
- remaining activity at 0.1 µM (EP2 WT; ligand log([M]) -7, Fig. S7B, read-out: % cAMP activity (normalized to WT)): 8.2%
- remaining activity at 0.01 µM (EP2 WT; ligand log([M]) -8, Fig. S7B, read-out: % cAMP activity (normalized to WT)): 63.2%
- remaining activity at 0.001 µM (EP2 WT; ligand log([M]) -9, Fig. S7B, read-out: % cAMP activity (normalized to WT)): 96.2%
- remaining activity at 0.0001 µM (EP2 WT; ligand log([M]) -10, Fig. S7B, read-out: % cAMP activity (normalized to WT)): 92.4%
- remaining activity at 10 pM (EP2 WT; ligand log([M]) -11, Fig. S7B, read-out: % cAMP activity (normalized to WT)): 103%
- remaining activity at 1 pM (EP2 WT; ligand log([M]) -12, Fig. S7B, read-out: % cAMP activity (normalized to WT)): 101%
- remaining activity at 10 µM (EP2 WT; read-out: % cAMP activity on EP2 (normalized to PF-04418948), ligand log([M]) -5, Fig. S1A): 2.66%
- remaining activity at 1 µM (EP2 WT; read-out: % cAMP activity on EP2 (normalized to PF-04418948), ligand log([M]) -6, Fig. S1A): 2.72%
- remaining activity at 0.1 µM (EP2 WT; read-out: % cAMP activity on EP2 (normalized to PF-04418948), ligand log([M]) -7, Fig. S1A): 8.2%
- remaining activity at 0.01 µM (EP2 WT; read-out: % cAMP activity on EP2 (normalized to PF-04418948), ligand log([M]) -8, Fig. S1A): 63.2%
- remaining activity at 0.001 µM (EP2 WT; read-out: % cAMP activity on EP2 (normalized to PF-04418948), ligand log([M]) -9, Fig. S1A): 96.2%
- remaining activity at 0.0001 µM (EP2 WT; read-out: % cAMP activity on EP2 (normalized to PF-04418948), ligand log([M]) -10, Fig. S1A): 92.4%
- remaining activity at 10 pM (EP2 WT; read-out: % cAMP activity on EP2 (normalized to PF-04418948), ligand log([M]) -11, Fig. S1A): 103%
- remaining activity at 1 pM (EP2 WT; read-out: % cAMP activity on EP2 (normalized to PF-04418948), ligand log([M]) -12, Fig. S1A): 101%
- cAMP activity (∆pIC50 from EP2 WT) (EP2 WT; Appendix Fig. S7A): 0.0005 and 0.053 and -0.059
- cAMP activity (∆pIC50 from EP2 WT) (EP2 WT; Fig. 3E): 0.043 and 0.00333 and -0.047
- remaining activity at 100 µM (EP4 WT; read-out: % cAMP activity EP4 (normalized to Grapiprant), ligand log([M]) -4.00): 99.1%
- remaining activity at […] (EP4 WT; read-out: % cAMP activity EP4 (normalized to Grapiprant), ligand log([M]) -4.70): 107%
- remaining activity at […] (EP4 WT; read-out: % cAMP activity EP4 (normalized to Grapiprant), ligand log([M]) -5.40): 103%
- remaining activity at […] (EP4 WT; read-out: % cAMP activity EP4 (normalized to Grapiprant), ligand log([M]) -6.10): 106%
- remaining activity at 0.03236 µM (EP4 WT; read-out: % cAMP activity EP4 (normalized to Grapiprant), ligand log([M]) -7.49): 93.7%
- remaining activity at 0.001288 µM (EP4 WT; read-out: % cAMP activity EP4 (normalized to Grapiprant), ligand log([M]) -8.89): 94%
- remaining activity at 0.01 µM [1, 8]: 45.3%
- remaining activity at 0.001 µM [1, 9]: 80.9%
- remaining activity at 0.0001 µM [1, 10]: 93%
- remaining activity at 10 pM [1, 11]: 84.1%
- remaining activity at 1 pM [1, 12]: 68.1%
- cAMP activity (∆pIC50 from EP2 WT) ([1]; PF-04418948, S308A, Mean): -0.283
- ΔpIC50 [1, 13]: -0.28 ± 0.10
- cAMP activity (∆pIC50 from EP2 WT) ([2]; Mean): -1.012
- cAMP activity (∆pIC50 from EP2 WT) ([2]; single experiments 1st-3rd): -1.044 and -1.010 and -0.982
- ΔpIC50 [2, 13]: -1.01 ± 0.02
- remaining activity at 0.1 µM ([3]; 1 h, PF-04418948 log([M]) -7.00, read-out: % cAMP activity (normalized to WT)): 10.6%
- remaining activity at 0.01 µM [3, 8]: 44.6%
- remaining activity at 0.001 µM [3, 9]: 89.9%
- remaining activity at 0.0001 µM [3, 10]: 92.4%
- remaining activity at 10 pM [3, 11]: 102%
- remaining activity at 1 pM [3, 12]: 104%
- cAMP activity (∆pIC50 from EP2 WT) ([3]; PF-04418948, WT, single experiments 1st-3rd): -0.051 and 0.118 and -0.068
- remaining activity at 10 µM [4, 14]: 14.6%
- remaining activity at 1 µM [4, 15]: 35.7%
- cAMP activity (∆pIC50 from EP2 WT) ([4]; Mean): -0.316
- cAMP activity (∆pIC50 from EP2 WT) ([4]; single experiments 1st-3rd): -0.355 and -0.329 and -0.263
- remaining activity at 10 µM [5, 14]: 5.6%
- remaining activity at 1 µM [5, 15]: 38.1%
- remaining activity at 0.0001 µM [5, 10]: 245%
- remaining activity at 10 pM [5, 11]: 252%
- cAMP activity (∆pIC50 from EP2 WT) ([5]; PF-04418948, M116A, Mean): -1.518
- ΔpIC50 [5, 13]: -1.52 ± 0.12
- remaining activity at 1 µM [6, 15]: 49.1%
- remaining activity at 0.01 µM [6, 8]: 95.7%
- remaining activity at 0.001 µM [6, 9]: 94.5%
- remaining activity at 0.0001 µM [6, 10]: 103%
- remaining activity at 10 pM [6, 11]: 108%
- remaining activity at 1 pM [6, 12]: 90.9%
- cAMP activity (∆pIC50 from EP2 WT) ([6]; PF-04418948, W186A, Mean): -2.049
- ΔpIC50 [6, 13]: -2.05 ± 0.09
- remaining activity at 0.0001 µM [7, 10]: 302%
- remaining activity at 1 pM [7, 12]: 299%
- cAMP activity (∆pIC50 from EP2 WT) ([7]; PF-04418948, T82A, Mean): -0.369
- ΔpIC50 [7, 13]: -0.37 ± 0.10
Structure (SMILES): COc1ccc2cc(OCC3(C(=O)O)CN(C(=O)c4ccc(F)cc4)C3)ccc2c1 [PF-04418948]
- antagonism profile EP2 versus EP4 (in words) (EP2 WT; cAMP accumulation assay upon PGE2 stimulation, Appendix Fig. S1A): selective antagonists of EP2; also recorded: highly selective for EP2 over EP4

Reference: paper PMC12669672, “Structural insights into selective and dual antagonism of EP2 and EP4 prostaglandin receptors” (The EMBO Journal, 2025)
